Measured values published in PubChem BioAssay AID489041 (Sanford-Burnham Center for Chemical Genomics, 2010).
Activity calls are given as the source filed them. How the calls were made is not given here.

System: HEK-293T NF-kB luciferase reporter counterscreen, luminescence
Assay: NF-kB reporter inhibition in HEK-293T, dose response, counter-screen for T-cell antigen receptor NF-kB inhibitors, HEK-293T cells, luminescence (AID 489041)

Row | Structure (SMILES) | IC50
1 | CCN1/C(=C/c2ccc3ccccc3[n+]2CC)C=Cc2ccccc21 | 1.01 µM
2 | Clc1ccc(CSc2nncn2-c2ccc3c(c2)OCCO3)cc1 | 13.8 µM
3 | Cc1nc(SCC(=O)Nc2nc3ccccc3s2)c(C#N)c(C)c1C | < 0.16 µM
4 | Cc1ccc(C(=O)N/N=C/c2ccc([N+](=O)[O-])s2)cc1 | 4.36 µM
5 | COc1ccc(CCN2C(=O)C3C4C=CC(C3C2=O)C2C(=O)N(CCc3ccc(OC)c(OC)c3)C(=O)C42)cc1OC (centres undefined) | 5.01 µM
6 | COc1ccc(NC(=O)/C(Cl)=C(/Cl)S(=O)Cc2ccc(C)cc2)cn1 (centres undefined) | 5.5 µM
7 | CN(C)c1ccc(-[n+]2c(-c3ccccc3)cc(-c3ccccc3)cc2-c2ccccc2)cc1 | 1.48 µM
8 | COc1ccc(OC)c(CCNC(=O)Cn2nc(C)c3c(C)n(-c4ccc(C)cc4)nc3c2=O)c1 | 1.28 µM
9 | COc1cc(C2=NOC(C(=O)NCc3ccc(F)cc3)C2)cc(OC)c1OC (centres undefined) | 6.34 µM
10 | CCOc1cc(C#N)c(NC(=O)c2cccnc2)cc1OCC | 37.7 µM (inactive)
11 | O=C(Nc1ccc(C(F)(F)F)cc1)c1cccn(Cc2ccc3c(c2)OC(F)(F)O3)c1=O | 22.5 µM (inactive)
12 | COC(=O)C1=C(CN2CCCc3ccccc32)NC(=O)NC1c1ccc(F)cc1 (centres undefined) | 5.33 µM
13 | C[C@@H]1O[C@@H](O[C@H]2C[C@@H](O)[C@]3(CO)[C@@H]4C(CC[C@]3(O)C2)[C@@]2(O)CC[C@H](C3COC(=O)C3)[C@@]2(C)C[C@H]4O)[C@H](O)[C@H](O)[C@H]1O (some centres undefined) | 0.69 µM
14 | CCCCCc1ccc(OCCCC[n+]2ccc(C)cc2)c(CCCCC)c1 | 5.84 µM
15 | Cc1ccc(C(=O)c2cc([N+](=O)[O-])ccc2N2CCCCC2)cc1 | 4.17 µM
16 | Cn1c2c(c(=O)n(C)c1=O)C(C(F)(F)F)(C(F)(F)F)N=C(c1ccc(Cl)cc1)N2 | 1.62 µM
17 | COc1ccc(NC(=O)C(=O)NCC2CCCN2S(=O)(=O)c2ccc(C)cc2)cc1 (centres undefined) | 0.69 µM
18 | CCN1C=CC(=C2C(=O)c3ccccc3C2=O)C=C1 | 0.92 µM
19 | Clc1cccc(Cl)c1/C=N/Nc1c(Cl)cncc1Cl | 36.7 µM (inactive)
20 | CC(C)(C)c1ccc(C(=O)O/N=C(\N)c2ccccn2)cc1 | 0.23 µM
21 | COC(=O)C[C@]1(C(=O)OC)CN(C#N)N(c2ccc(Cl)cc2)C12c1ccccc1-c1ccccc12 | 20.1 µM (inactive)
22 | Cc1ccc(C(=O)c2cc([N+](=O)[O-])ccc2N2CCOCC2)cc1C | 10.3 µM
23 | Cc1cc2c(cc1C)C(c1ccccc1OC(C)C)CC(=O)N2 (centres undefined) | 13.3 µM
24 | CCO[C@H]1OC(C(=O)NCc2nc3ccccc3[nH]2)=C[C@@H](C2CC2)[C@@H]1CCCO | 41.1 µM (inactive)
25 | CCn1c(C)cc(C(=O)CN2C(=O)c3ccccc3S2(=O)=O)c1C | 5.36 µM

Row | Structure (SMILES) | IC50
26 | O=C(Nc1nc(-c2ccccn2)cs1)c1ccc(Cl)s1 | 4.44 µM
27 | O=C(Sc1cccc2cccnc12)c1ccccc1Br | 27.1 µM (inactive)
28 | COc1ccccc1NC(=O)Cn1nnc(C(=O)NCc2cccs2)c1N | 1.93 µM
29 | COc1ccc(Cl)cc1NC(=O)CN(C)CC(=O)Nc1ccccc1N1CCOCC1 | 12 µM
30 | COc1ccc(C(=O)/C(C#N)=N/Nc2ccc([N+](=O)[O-])cc2)cc1 | 0.32 µM
31 | Cc1cccc(N=Nc2ccc(O)c3ncccc23)c1 | > 80 µM (inactive)
32 | Cn1cc(C(=O)N/N=C/c2c(O)ccc3ccccc23)ccc1=O | > 80 µM (inactive)
33 | O=C(O)c1ccc(N/N=C/c2ccc3c(c2)OCO3)cc1 | 1.72 µM
34 | CC(Nc1ncnc2ccccc12)c1ccccc1 (centres undefined) | 3.28 µM
35 | COc1ccc2nc(C)cc(N/N=C/c3ccc(F)cc3)c2c1 | 22.4 µM (inactive)
36 | Cc1nn(-c2ccccc2Cl)c(Cl)c1/C=N/Nc1nc2ccccc2s1 | < 0.16 µM
37 | CCC(C)(C)c1ccc(OCCCC[n+]2cccc(C)c2C)c(C(C)(C)CC)c1 | 4.01 µM
38 | CC(=O)O[C@H]1C(=O)[C@@]2(C)C([C@H](OC(=O)c3ccccc3)[C@]3(O)C[C@H](OC(=O)[C@H](O)[C@@H](NC(=O)c4ccccc4)c4ccccc4)C(C)=C1C3(C)C)[C@]1(OC(C)=O)CO[C@@H]1C[C@H]2O (some centres undefined) | > 80 µM (inactive)
39 | COc1ccc(CS(=O)(=O)/C(Cl)=C(/Cl)C(=O)Nc2ccc(OC)nc2)cc1 | 3.46 µM
40 | COc1ccc(CNS(=O)(=O)c2cc(-c3cc(C)no3)ccc2C(C)C)cc1 | 10.9 µM
41 | COc1ccc(CC(=O)Nc2nc(-c3ccc(F)c(F)c3)cs2)cc1OC | 2.87 µM
42 | COc1ccccc1C(=O)Nc1nc2ccccc2s1 | 0.8 µM
43 | COc1ccc(NS(=O)(=O)c2ccc(-c3cnc(C4CC4)o3)cc2)cc1OC | 1 µM
44 | COC(=O)c1ccc(Oc2cc(C)nc(SC)n2)cc1 | 28.8 µM (inactive)
45 | Oc1ccc(Nc2nc3ccccc3nc2Nc2ccc(O)cc2)cc1 | 17.6 µM
46 | Cc1ccc(N2C(=O)c3cccc4c(N)ccc(c34)C2=O)c2cccnc12 | < 0.16 µM
47 | CCOC(=O)COc1cccc2c(=O)n(CC(=O)NCc3ccc(F)cc3)ccc12 | < 0.16 µM
48 | O=C(Nc1ccc(N2CCN(C(=O)c3ccc(Cl)cc3)CC2)cc1)c1ccc2c(c1)OCCO2 | 3.1 µM
49 | O=C(N/N=C\c1c(O)ccc2ccccc12)c1cncc(Br)c1 | 11.2 µM
50 | Cc1ccc2[nH]c3c(c2c1)CCCC3NC(=O)CCl (centres undefined) | 7.68 µM

Row | Structure (SMILES) | IC50
51 | Cc1c(C(=O)OC2CCCC2)[nH]c2c1C(=O)CC(c1ccco1)C2 (centres undefined) | 0.45 µM
52 | Cn1nc(CC(=O)Nc2ccc(N3CCN(C(=O)OC(C)(C)C)CC3)cc2)c2ccccc2c1=O | 0.76 µM
53 | COc1ccc2c(c1)C(=O)N1[C@H]3c4cc(Br)ccc4OC[C@@H]3[C@H](c3ccccc3)[C@]1(C)C(=O)N2 | > 80 µM (inactive)
54 | CC1Cc2cc(-c3csc(NC(=O)Cc4cccs4)n3)ccc2N1S(C)(=O)=O (centres undefined) | 2 µM
55 | CC#CC(=O)N1CCC(n2nccc2NC(=O)c2ccc3c(c2)OCO3)CC1 | > 80 µM (inactive)
56 | Cc1cc(O)c2c(c1O)C(=O)[C@]13C(=C2O)C(=O)[C@@H]2[C@@H](O)[C@H]1[C@@H]1[C@H](O)[C@H]3C(=O)C3=C(O)c4c(O)cc(C)c(O)c4C(=O)[C@]312 | 11.4 µM
57 | COc1cc(-c2c(-c3cc(OC)c(OC)c(OC)c3)noc2C)ccc1F | 0.72 µM
58 | C=C(C=O)C[C@@H]1C[C@H](O)C2OC3C[C@]4(C)OC5/C=C\CC6OC7C(CC=CCC6OC5CCCC4OC3CC2O1)OC1CC2OC3CC(=O)OC3C[C@@H](C)C[C@@]2(C)OC1C[C@@H]7C (some centres undefined) | > 80 µM (inactive)
59 | O=C(NC(Nc1nc2ccc([N+](=O)[O-])cc2s1)(C(F)(F)F)C(F)(F)F)c1ccccc1 | > 80 µM (inactive)
60 | O=C(c1ccc(Cl)cc1)c1cc([N+](=O)[O-])ccc1N1CCOCC1 | 11.9 µM
61 | Cc1ccc(O)c(N=Nc2nccs2)c1 | > 80 µM (inactive)
62 | CCOC(=O)/C=C/S(=O)(=O)c1ccc(NC(C)=O)cc1 | 20.1 µM (inactive)
63 | CCOc1ccc2c(c1)OC(c1ccc(C)cc1)(C(F)(F)F)NC2=O (centres undefined) | 5.57 µM
64 | COc1cccc(/C=N/Nc2ncnc3c2ncn3Cc2ccccc2)c1O | 0.25 µM
65 | CCOC(=O)c1c(C)[nH]c(C(=O)N/N=C/c2ccc(Br)cc2)c1C | < 0.16 µM
66 | CCOC(=O)c1[nH]c(C)c(C(=O)OCC(=O)NC(C)c2ccc(F)cc2)c1C (centres undefined) | > 80 µM (inactive)
67 | O=S1(=O)C=C(Sc2nc3ccccc3s2)c2ccccc21 | 5.57 µM
68 | CCOC(=O)c1[nH]c2c(c1C)C(=O)CC(c1ccco1)C2 (centres undefined) | 4.38 µM
69 | Cc1cccc(NS(=O)(=O)c2ccc(-c3cnc(C4CC4)o3)cc2)c1C | 1.7 µM
70 | CCc1cc2c(=O)nc3n(c2s1)Cc1ccccc1/C3=C(/O)c1cccc([N+](=O)[O-])c1 | > 80 µM (inactive)
71 | COc1ccc(OCC(=O)Nc2ccccc2N2CCCCC2)cc1 | 12 µM
72 | CCOC(=O)c1[nH]c(C)c(C(=O)Nc2cc(OC)ccc2OC)c1C | > 80 µM (inactive)
73 | CCCOCCOC(=O)c1[nH]c2c(c1C)C(=O)CC(c1cc(OC)ccc1OC)C2 (centres undefined) | 1 µM
74 | Cn1c(SC2=CS(=O)(=O)c3ccccc32)nc2ccccc21 | 12.2 µM
75 | CCCCC(=O)NC(c1ccc(Cl)cc1Cl)c1ccc2cccnc2c1O (centres undefined) | > 80 µM (inactive)

Row | Structure (SMILES) | IC50
76 | CCCCN=C[C@]12CCC(O)CC1(O)CCC1[C@@H]2CC[C@]2(C)[C@H](C3C=CC(=O)O3)CCC12O (some centres undefined) | 0.34 µM
77 | N/C(=N\OCc1ccc([N+](=O)[O-])cc1)c1ccccn1 | 1.78 µM
78 | O=C(N[C@@H](Cc1ccccc1)C(=O)CCl)OCc1ccccc1 | 15.9 µM
79 | Cc1ccc(Nc2nc(-c3c(C)nc4ccccn34)cs2)cc1 | 0.59 µM
80 | CC(C)(C)c1ccc(C(=O)O/N=C(\N)c2ccccc2)cc1 | 0.31 µM
81 | COc1ccc(/C=N/Nc2cc(C)nc3ccc(OC)cc23)c(OC)c1 | 25.7 µM (inactive)
82 | CCOc1ccccc1C(=O)N1CCN(c2cccc(Cl)c2)CC1 | 2.28 µM
83 | COc1cc2c(cc1O)CC[C@@H]1[C@@H]2CC[C@]2(C)[C@@H](O)CC[C@@H]12 | 23 µM (inactive)
84 | COc1ccc(NC(=O)C(=O)NCC2CCCN2S(=O)(=O)c2cccs2)cc1 (centres undefined) | 21 µM (inactive)
85 | O=c1cc(-c2ccccc2)[nH]c2cc(F)ccc12 | 2.62 µM
86 | CC[C@]1(O)CC2CN(CCc3c([nH]c4ccccc34)[C@@](C(=O)OC)(c3cc4c(cc3OC)N(C=O)[C@H]3[C@@](O)(C(=O)OC)[C@H](OC(C)=O)[C@]5(CC)C=CCN6CC[C@]43[C@@H]65)C2)C1 (some centres undefined) | 3.12 µM
87 | c1ccc(-c2noc(-c3ccc4ccccc4c3)n2)nc1 | 3.2 µM
88 | Oc1ccc2ccccc2c1/C=N/Nc1nnc(-c2ncc[nH]2)c2ccccc12 | 0.52 µM
89 | COc1ccc(C)c(Cn2c(-c3nonc3N)nc3ccccc32)c1 | 1.84 µM
90 | CCCC(=O)NC(c1ccc(N(C)C)cc1)c1ccc2cccnc2c1O (centres undefined) | > 80 µM (inactive)
91 | CN[C@H]1CCc2cc(OC)c(OC)c(OC)c2-c2ccc(OC)c(=O)cc21 | < 0.16 µM
92 | CC(=O)Nc1ccc(S(=O)(=O)N2c3ccccc3C(C)=CC2(C)C)cc1 | 4.76 µM
93 | O=C(COc1ccccc1-c1ccccc1)N/N=C/c1cccc2ccccc12 | 8 µM
94 | COc1ccc(OC)c2c1C(=O)C(Cl)=C(Cl)C2=O | 3.96 µM
95 | O=C(N/N=C/c1ccccc1Cl)c1[nH]c2ccc(Br)cc2c1-c1ccccc1 | 38.3 µM (inactive)
96 | CCN(CC)S(=O)(=O)c1cc(NC(=O)CNc2cccc(S(=O)(=O)N3CCCC3)c2)ccc1C | 2.52 µM
97 | CCOC(=O)c1ccc2nc(Nc3nc4ccc(F)cc4s3)sc2c1 | 1.14 µM
98 | COc1cc(-c2noc(C)c2/C=C/c2cccc([N+](=O)[O-])c2)cc(OC)c1OC | 9.59 µM
99 | COc1ccc(CS(=O)/C(Cl)=C(/Cl)C(=O)Nc2ccc(OC)nc2)cc1 (centres undefined) | 4.31 µM
